15 compounds from PubChem BioAssay (NCI) can be followed below.

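Five concentrations, 48 hours, 96-well plates. The concentration for full growth arrest is given as TGI.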

Common to all, as to test: NCI-60 cell line screen, 48 h
Test [1] deals with NCI-H460 lung.
The subject of test [2] is SNB-19 CNS.
In test [3] the test system is KM12 colon.
The test system of test [4] is T-47D breast.
For test [5], the system named is HCC-2998 colon.
Test [6] deals with HCT-116 colon.
Test [7] concerns SR leukemia.
Test [8] has as its system SK-MEL-28 melanoma.
Test [9] relates to MCF7 breast.
Test [10] deals with HOP-62 NSCLC.
Test [11] deals with OVCAR-5 ovarian.
The test system of test [12] is TK-10 renal.
In test [13] the test system is EKVX NSCLC.
The subject of test [14] is SF-268 CNS.
In test [15] the test system is UACC-62 melanoma.
Test [16] concerns U251 CNS.
Test [17] concerns SNB-75 CNS.
Test [18] concerns COLO 205 colon.
Test [19] has as its system MDA-MB-231 breast.
In test [20] the test system is MDA-MB-435.

Take `COc1cc(OC)c(C2c3cc4c(cc3OC(N3CCCC3)C2C)OCO4)c(OC)c1` (stereo unspecified): the TGI is 32.5 µM in test [1]; 51.1 µM in test [2]; 30.2 µM in test [3]; greater than 100 µM in [4]; 21.9 µM in test [5]; 16.7 µM in test [6]. Further, the TGI in test [7] was 29.6 µM; in test [8], 46.2 µM; in test [9] it was 48.1 µM; in test [10] it was 40.1 µM; in test [11] it was 69 µM; in [12] it was greater than 100 µM. For the same compound, the TGI in test [13] was greater than 100 µM; in [14], 40.3 µM; in [15] it was 69.6 µM.
For `On1c(-c2ccccc2)nc2ccccc2c1=S`, the TGI was 61.8 µM in test [1]; greater than 100 µM in test [2]; greater than 100 µM in test [3]; greater than 100 µM in test [4]; greater than 100 µM in test [16]; greater than 100 µM in test [5]. Further, the TGI in test [6], in test [17], in [18], in test [8], in test [19] and in [9] was greater than 100 µM in each case. The TGI in test [10], in test [20], in [11], in [12], in [13] and in [14] was greater than 100 µM each time. Also, the TGI in test [15] is greater than 100 µM.
With `Cc1cc(NCc2ccccc2)c2ccccc2[n+]1CCCCCCCCCC[n+]1c(C)cc(NCc2ccccc2)c2ccccc21`, the TGI was greater than 100 µM in [2]; 0.796 µM in test [3]; 1.41 µM in [4]; 0.795 µM in test [16]; 1.79 µM in test [5]; 1.45 µM in [6]. Further, the TGI stood at 1.94 µM in test [17]; 0.665 µM in test [18]; 2.16 µM in test [8]; 1.74 µM in test [19]; 1.91 µM in [9]; 1.65 µM in test [20]. For the same compound, the TGI in test [11] stood at 12.7 µM; in test [12] it was 3.17 µM; in test [13] it was 13.4 µM; in test [14] it was 2.45 µM; in test [15] it was 0.567 µM.
As for `CC(C(O)Cc1ccccc1)N(C)N=Nc1ccc([N+](=O)[O-])cc1` (stereo unspecified), the TGI in test [1] is 32.3 µM; in [2], greater than 100 µM; in test [3] it was 53.2 µM; in test [4], 74.5 µM; in test [16], 38.5 µM; in test [5], 32.2 µM. In addition, the TGI was 30.2 µM in test [6]; greater than 100 µM in test [17]; 39.2 µM in [18]; 39.9 µM in test [8]; 33.7 µM in [19]; 80.6 µM in test [9]. The TGI in [10] is 37.5 µM; in [20], 40.9 µM; in test [11], 76.1 µM; in [12], 47.7 µM; in test [13] it was 73.2 µM; in [14], 47.3 µM. Besides, the TGI in [15] was 37.6 µM.
With `Cc1cc(S(=O)(=O)Nc2nc3cc(-c4ccc(Cl)cc4)sc3c(=O)n2N)c(S)cc1Cl`, the TGI in [1], in test [2], in [3], in test [4], in test [16] and in [5] was greater than 100 µM in each case. Also, the TGI in [6] was greater than 100 µM; in test [17] it was greater than 100 µM; in [18] it was 56.1 µM; in test [8] it was greater than 100 µM; in test [19], greater than 100 µM; in test [9], greater than 100 µM. For the same compound, the TGI in [10], in test [20], in [11], in test [12], in test [13] and in test [14] was greater than 100 µM throughout. In test [15], this compound registered a TGI greater than 100 µM.
`CCOc1ccc(/C=C2/C(=O)N=C(NC(C)=O)N2C)cc1`: the TGI in [1], in [2], in test [3], in [4], in test [16] and in [5] was greater than 100 µM in each case. For the same compound, the TGI in test [6], in test [17], in [18], in test [8], in [19] and in test [9] was greater than 100 µM in each case. For the same compound, the TGI in test [10], in test [20], in test [11], in test [12], in [13] and in test [14] was greater than 100 µM in each case. This compound showed a TGI in test [15] greater than 100 µM.
`CC(=O)NC1c2ccccc2C(C)(C)C12CCC1(CC2)OCCO1` (stereo unspecified): the TGI in [1] was greater than 10 µM; in test [2] it was greater than 100 µM; in [3] it was greater than 100 µM; in test [4], greater than 100 µM; in [16], greater than 100 µM; in [5], greater than 100 µM. Also, the TGI in test [6], in test [17], in test [18], in [7], in test [8] and in test [19] was greater than 100 µM each time. The TGI in test [9], in test [10], in test [11], in test [12], in test [13] and in test [14] was greater than 100 µM each time. For the same compound, the TGI in test [15] is greater than 100 µM.
With `CCOC(=O)C1C2CCC1CC(=NNc1ccc([N+](=O)[O-])cc1[N+](=O)[O-])C2` (stereo unspecified), the TGI in [1], in [2], in test [3], in test [16], in test [5] and in test [6] was greater than 50 µM throughout. Besides, the TGI in test [17], in [18], in test [7], in [8], in [19] and in [9] was greater than 50 µM throughout. Further, the TGI in test [10], in test [20], in test [11], in [12], in test [13] and in [14] was greater than 50 µM each time. In test [15], this compound returned a TGI greater than 50 µM.
In the case of `CC1=NNC(=O)C1C(CC(=O)c1c[nH]c2ccccc12)C(=O)O` (stereo unspecified), the TGI in test [1], in test [2], in [3], in test [4], in test [16] and in test [6] was greater than 100 µM in each case. Moreover, the TGI in [17], in test [18], in test [8], in test [19], in [10] and in [20] was greater than 100 µM throughout. For the same compound, the TGI in [11], in [12], in [13], in [14] and in test [15] was greater than 100 µM in each case.
On to `COc1ccc(C2OC(c3ccncc3)=NN2C)cc1OC` (stereo unspecified), for which the TGI in test [1], in test [2], in test [3], in test [4], in test [16] and in [5] was greater than 100 µM in each case. The TGI in [6], in test [18], in test [8], in [19], in test [9] and in [10] was greater than 100 µM in each case. Moreover, the TGI in test [20], in test [11], in test [12], in test [13], in test [14] and in test [15] was greater than 100 µM each time.
Regarding `Cn1c(COC(=O)Nc2ccccc2)c(COC(=O)Nc2ccccc2)c2ccc3cc(Cl)c(Cl)cc3c21`, the TGI in test [1] was 22.9 µM; in [2] it was greater than 75 µM; in [3] it was 23.4 µM; in test [4], 5.41 µM; in [16], 5.01 µM; in test [5], 15.8 µM. Further, the TGI in test [6] amounted to 38.5 µM; in test [17], 19.2 µM; in test [18], 14.5 µM; in test [8], 41.4 µM; in test [19], 12.7 µM; in test [9], 10.6 µM. In addition, the TGI in test [20] came out at 29.1 µM; in test [11], 24.1 µM; in test [12] it was 22.7 µM; in test [13] it was 44.5 µM; in test [14], 21.9 µM; in test [15], 40.7 µM.
For the compound `C=C(Cl)C(C)(Cl)CCC(Br)C(C)(C)Cl` (stereo unspecified), the TGI was 71.9 µM in test [1]; greater than 100 µM in test [2]; 42.9 µM in test [3]; 29.8 µM in test [16]; 34.2 µM in test [5]; 29.5 µM in test [6]. For the same compound, the TGI in test [17] amounted to 33.5 µM; in test [18], 31.8 µM; in test [7], 93.6 µM; in [8] it was 48.1 µM; in test [19] it was 28.7 µM; in [9] it was 30.8 µM. In addition, the TGI is 53.4 µM in [10]; 39.9 µM in test [20]; 47.7 µM in [11]; greater than 100 µM in test [12]; greater than 100 µM in test [13]; greater than 100 µM in test [14]. Further, the TGI in test [15] was 30.9 µM.
Regarding `COc1cccc(/C=N/n2c(C)n[nH]c2=O)c1`, the TGI in [1], in [2], in test [3], in test [4], in test [16] and in test [5] was greater than 100 µM in each case. Further, the TGI in test [6], in [17], in test [18], in [8], in test [19] and in [9] was greater than 100 µM throughout. Further, the TGI in [10], in test [20], in test [11], in test [13], in test [14] and in test [15] was greater than 100 µM each time.
Take `Nc1[nH]nc2nc3ccc(C(F)(F)F)cc3nc12`: the TGI in test [1] was 52.9 µM; in test [2], greater than 100 µM; in test [3] it was greater than 100 µM; in test [16], greater than 100 µM; in [5], greater than 100 µM; in test [6], greater than 100 µM. For the same compound, the TGI in [17] was 41.3 µM; in test [18] it was 57.3 µM; in test [7] it was greater than 100 µM; in test [8], 42.6 µM; in test [19], greater than 100 µM; in [9] it was 31.1 µM. Further, the TGI was 58.8 µM in [10]; greater than 100 µM in test [20]; 99.2 µM in test [11]; greater than 100 µM in test [12]; greater than 100 µM in test [13]; greater than 100 µM in test [14]. In addition, the TGI in test [15] was found to be 69.1 µM.
As for `Cc1ccc(S(=O)(=O)NC(=O)N[C@@H](Cc2cnc[nH]2)C(=O)O)cc1`, the TGI in test [1], in test [2], in test [3], in test [4], in [16] and in test [6] was greater than 100 µM in each case. In addition, the TGI in test [17], in [18], in test [8], in test [19], in test [9] and in test [10] was greater than 100 µM throughout. The TGI in test [11], in test [12], in test [14] and in [15] was greater than 100 µM in each case.
